# Results: patent publication US5536737A, “Compound having prolyl endopeptidase inhibitory activity and pharmaceutical use thereof” (Japan Tobacco Inc., priority 1992, dated 1996)
# Experiments:
# Assay type in all cases: biochemical
# prolyl endopeptidase = target: T1, prolyl endopeptidase (Rattus norvegicus, UniProt O70196); assay: Prolyl endopeptidase-inhibitory activity
# T1 construct: prolyl endopeptidase extracted from rat brain; from tissue; host or cells: rat brain
# T1 sequence (O70196 1-710): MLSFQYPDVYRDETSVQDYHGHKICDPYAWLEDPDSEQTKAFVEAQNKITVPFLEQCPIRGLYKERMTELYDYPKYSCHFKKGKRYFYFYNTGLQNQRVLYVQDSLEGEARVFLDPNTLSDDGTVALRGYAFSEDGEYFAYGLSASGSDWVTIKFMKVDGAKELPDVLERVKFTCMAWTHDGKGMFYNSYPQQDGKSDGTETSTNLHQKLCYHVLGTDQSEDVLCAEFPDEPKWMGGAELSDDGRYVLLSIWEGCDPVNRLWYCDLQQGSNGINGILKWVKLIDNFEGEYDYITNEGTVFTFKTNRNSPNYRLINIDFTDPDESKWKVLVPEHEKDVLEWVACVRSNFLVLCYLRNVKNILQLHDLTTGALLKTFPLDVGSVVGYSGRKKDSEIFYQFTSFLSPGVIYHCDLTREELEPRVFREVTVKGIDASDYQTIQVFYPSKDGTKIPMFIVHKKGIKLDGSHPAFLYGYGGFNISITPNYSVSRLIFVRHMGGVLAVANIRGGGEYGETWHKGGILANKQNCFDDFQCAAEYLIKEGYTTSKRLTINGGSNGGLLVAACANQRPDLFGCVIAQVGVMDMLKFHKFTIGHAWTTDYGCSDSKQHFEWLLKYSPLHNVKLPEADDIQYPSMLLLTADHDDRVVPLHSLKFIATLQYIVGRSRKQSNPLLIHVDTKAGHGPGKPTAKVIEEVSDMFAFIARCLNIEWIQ
# Protocol: Prolyl endopeptidase-inhibitory activity
# A mixture of a 0.1M potassium-sodium phosphate buffer (pH 7.0, 2675 μl ), a solution of the compound of the present invention in a 0.1M potassium-sodium phosphate buffer (pH 7.0, 100 μl ) and a solution of prolyl endopeptidase extracted from rat brain in a 25 mM sodium phosphate buffer (100 μl ) [123 unit/1, pH 6.8, containing 1 mM dithiothreitol and 0.5 mM EDTA, prepared by the method described in J. Neurochem., 35, 527 (1980)] was preincubated at 30° C. for 30 minutes. Thereto was added a 0.2 mM solution of 7-(N-succinyl-glycyl-prolyl)-4methylcoumarinamide (Peptide Institute, INC.) in a 0.1M potassium-sodium phosphate buffer (pH 7.0, 125 μl), and the mixture was incubated at 30° C. for 1 hour. The reaction mixture was immersed in ice (0° C.) to terminate the reaction, and the fluorescence (a1) was determined ten minutes later (excitation at 370 nm and emission at 440 nm). Concurrently, an experiment wherein, in the above system, the prolyl endopeptidase solution was substituted for a 25 mM sodium phosphate buffer (pH 6.8, containing 1 mM dithiothreitol and 0.5 mM EDTA) and an experiment wherein the solution of the compound of the present invention was substituted for a 0.1M potassium-sodium phosphate buffer (pH 7.0) were conducted. Each fluorescence (a2 and a3) was determined [See Tanpakushitsu Kakusan Koso, 29, 127 (1984)]. The prolyl endopeptidase inhibition was calculated by the following formula, and IC50, a concentration necessary for 50% inhibition, was estimated by using a semilogarithmic graph paper. [formula]
# trypsin = target: T2, trypsin (Bos taurus, UniProt P00760); assay: Trypsin-inhibitory activity; settings: concentration 0.1 μM; bovine pancreas, pH 8.0
# T2 construct: purchased Sigma; host or cells: bovine pancreas
# T2 sequence (P00760 24-246): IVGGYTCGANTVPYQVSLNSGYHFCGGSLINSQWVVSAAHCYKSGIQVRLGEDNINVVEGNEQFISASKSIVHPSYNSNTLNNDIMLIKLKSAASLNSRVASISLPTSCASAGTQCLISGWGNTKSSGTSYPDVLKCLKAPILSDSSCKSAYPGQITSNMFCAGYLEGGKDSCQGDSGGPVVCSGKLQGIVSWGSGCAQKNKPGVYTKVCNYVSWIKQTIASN
# Protocol: (§1) Inhibitory activity against various proteases
# (§2) The compound of the present invention having predetermined concentrations was tested for the specificity of the inhibitory activity against various proteases according to a known test method.
# (§3) The methods for the determination of the inhibitory activity against various proteases other than prolyl endopeptidase and the method for calculating the inhibition are as follows.
# Determination of trypsin-inhibitory activity
# In the present invention, a 50 mM Tris-HCI buffer (pH 8.0) was used as a buffer for measurement.
# To a mixture of the above-mentioned buffer (850 μl ), a solution of the compound of the present invention in the same buffer (50 μl ) and a 0.02 μM solution of trypsin (derived from bovine pancreas, Sigma) in the same buffer (50 μl ) was added a 200 μM solution of 7-(prolyl-phenylaranyl-arginyl)-4methylcoumarinamide (Peptide Institute, Inc.) in the same buffer (50 μl), and the mixture was incubated at 30° C. for 1 hour. The reaction mixture was immersed in ice (0° C.) to terminate the reaction, and the fluorescence (b1) was determined 1 hour later (excitation at 370 nm and emission at 440 nm). Concurrently, an experiment wherein, in the system above, the trypsin solution was substituted for a buffer and an experiment wherein the solution of the compound of the present invention was substituted for said buffer were conducted. Each fluorescence (b2 and b3) was determined.
# (§4) Using the fluorescence x1, x2 and x3 wherein x is b, c, d, e or f, measured in the above-mentioned manner, the inhibition against various proteases was calculated by the following formula: [formula]
# chymotrypsin = target: T3, chymotrypsin (Bos taurus, UniProt P00766); assay: Chymotrypsin-inhibitory activity; settings: concentration 0.1 μM; bovine pancreas, pH 8.0
# T3 construct: purchased Sigma; host or cells: bovine pancreas
# Protocol: as §1, §2, §3
# Determination of chymotrypsin-inhibitory activity
# In completely the same manner as above, respective fluorescence (c1, c2 and c3) was determined using a 50 mM Tris-HCl buffer (pH 8.0) as a buffer for determination, a 0.2 μM solution of chymotrypsin (derived from bovine pancreas, Sigma) in the same buffer as an enzyme solution, and a 200 μM solution of 7-(N-succinyl-leucyl-leucyl-varyl-tyrosyl)-4-methylcoumarinamide (Peptide Institute, Inc.) in the same buffer as a substrate solution.
# as §4
# leucine aminopeptidase = assay: Leucine aminopeptidase-inhibitory activity; settings: concentration 0.1 μM; swine kidney, pH 8.0
# Protocol: as §1, §2, §3
# Determination of leucine aminopeptidase-inhibitory activity
# In completely the same manner as above, respective fluorescence (d1, d2 and d3) was determined using a 50 mM Tris-HCl buffer (pH 8.0) as a buffer for determination, a 0.2 μM solution of leucine aminopeptidase (derived from swine kidney, Sigma) in the same buffer as an enzyme solution and a 200 μM solution of 7-leucyl-4-methyl-coumarinamide (Peptide Institute, Inc.) in the same buffer as a substrate solution.
# as §4
# elastase = target: T4, elastase (Sus scrofa, UniProt P00772); assay: Elastase-inhibitory activity; settings: concentration 0.1 μM; swine pancreas, pH 8.5
# T4 construct: purchased Sigma; host or cells: swine pancreas
# Protocol: as §1, §2, §3
# Determination of elastase-inhibitory activity
# In completely the same manner as above, respective fluorescence (e1, e2 and e3) was determined using a 1 mM Tris-HCl buffer (pH 8.5) as a buffer for determination, a 0.2 μM solution of elastase (derived from swine pancreas, Sigma) in the same buffer as an enzyme solution and a 200 μM solution of 7-(N-succinyl-aranyl-prolyl-aranyl)-4-methylcoumarinamide (Peptide Institute, Inc.) in the same buffer as a substrate solution.
# as §4
# cathepsin B = target: T5, cathepsin B (Bos taurus, UniProt P07688); assay: Cathepsin B-inhibitory activity; settings: concentration 0.1 μM; bovine spleen, pH 6.0
# T5 construct: purchased Sigma; host or cells: bovine spleen
# Protocol: as §1, §2, §3
# Determination of cathepsin B-inhibitory activity
# In completely the same manner as above, respective fluorescence (f1, f2 and f3) was determined using a 100 mM sodium phosphate buffer (pH 6.0; containing 1.33 mM EDTA Na2) as a buffer for determination, a 0.02 μM solution of cathepsin B (derived from bovine spleen, Sigma) in the same buffer as an enzyme solution and a 200 μM solution of 7-(N-benzyloxy-carbonyl-phenylaranyl-arginyl)-4-methylcouma-rinamide (Peptid Institute, Inc.) in the same buffer as a substrate solution.
# as §4
# T4 sequence (P00772 27-266): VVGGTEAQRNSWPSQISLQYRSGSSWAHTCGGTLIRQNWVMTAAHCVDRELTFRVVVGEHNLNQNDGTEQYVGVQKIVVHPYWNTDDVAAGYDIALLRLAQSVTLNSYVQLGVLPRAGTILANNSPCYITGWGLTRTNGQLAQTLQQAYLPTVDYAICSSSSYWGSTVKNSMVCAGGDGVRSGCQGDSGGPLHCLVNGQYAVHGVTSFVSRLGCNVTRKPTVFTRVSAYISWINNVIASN
smiles,measurement,setting,value
"Cc1ccc(CNC(=O)N2CCC[C@H]2C(=O)N2CCC[C@H]2C(=O)COC(=O)c2ccccc2)cc1 [Compound 8, (S)-2-[[(S)-2-(Benzoyloxyacetyl)-1-pyrrolidinyl]carbonyl]-N-[(4methylphenyl)methyl]-1-pyrrolidinecarboxamide]",IC50,prolyl endopeptidase,0.4 nM
same,inhibition at 0.1 µM,prolyl endopeptidase; read-out: inhibition of prolyl endopeptidase,100%
same,inhibition at 0.1 µM,trypsin,0%
same,inhibition at 0.1 µM,chymotrypsin,0%
same,inhibition of leucine aminopeptidase,leucine aminopeptidase,0%
same,inhibition at 0.1 µM,elastase,0%
same,inhibition at 0.1 µM,cathepsin B,0%
